Results published in PubChem BioAssay (NCI).
“And” between values parts separate entries of the source, which are not always exact repeats. Identical values can stand only once.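 Test compounds were applied to cells in 96-well plates for 48 hours at 5 doses. The concentration for 50% growth inhibition is given as GI50. TGI: concentration producing complete growth inhibition.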

Tests used:
Assay in all cases: NCI anticancer screen, dose series, 48 h
HCT-116 colon = tested on: HCT-116 colon
HL-60(TB) leukemia = tested on: HL-60(TB) leukemia
IGROV1 ovarian = tested on: IGROV1 ovarian
K-562 leukemia = tested on: K-562 leukemia
LOX IMVI melanoma = tested on: LOX IMVI melanoma
M14 melanoma = tested on: M14 melanoma
NCI-H522 lung = tested on: NCI-H522 lung
SNB-19 CNS = tested on: SNB-19 CNS
SR leukemia = tested on: SR leukemia
MDA-MB-435 = tested on: MDA-MB-435

Structure (SMILES)	TGI (HCT-116 colon) [µM]	TGI (HL-60(TB) leukemia) [µM]	TGI (IGROV1 ovarian) [µM]	TGI (K-562 leukemia) [µM]	TGI (LOX IMVI melanoma) [µM]	TGI (M14 melanoma) [µM]	TGI (NCI-H522 lung) [µM]	TGI (SNB-19 CNS) [µM]	TGI (SR leukemia) [µM]	GI50 (HCT-116 colon) [µM]	GI50 (HL-60(TB) leukemia) [µM]	GI50 (IGROV1 ovarian)	GI50 (K-562 leukemia) [µM]	GI50 (LOX IMVI melanoma)	GI50 (M14 melanoma)	GI50 (MDA-MB-435) [µM]	TGI (MDA-MB-435) [µM]	GI50 (NCI-H522 lung)	GI50 (SNB-19 CNS)	GI50 (SR leukemia) [µM]
COc1ccc(NC(=O)C(=O)C(C(=O)c2ccccc2)C2OC(=O)c3ccccc32)c([N+](=O)[O-])c1 (stereo not given)	> 100	> 100	> 100	> 100	> 100	> 100	> 100	> 100	> 100											
NC(=O)C(=Cc1ccc(C(O)P(=O)(O)O)cc1)C(N)=O (stereo not given)	> 100		> 100	> 100	> 100	> 100	> 100	> 100												
Cc1[nH]c2ccccc2c1C1Cc2ccccc2N1C(=O)/C=C\C(=O)O (stereo not given)	> 100	68.2	> 100	> 100	37.6	> 100	77.4	68.6	85.7											
O=C(Nc1cc(Cl)c(Cl)cc1Cl)C(=O)C1C=CCS1(=O)=O (stereo not given)	> 100	> 100	> 100	> 100	> 100	> 100	> 100	> 100	> 100											
COc1cc(OC)cc(C2CC(=O)Nc3c2c(C)nn3-c2nc3ccccc3[nH]2)c1 (stereo not given)	4.16	7.37	7.76	> 100	4.44	7.27	5.58	> 100		1.97	2.34	2.74 µM	3.15	2.09 µM	2.46 µM	2.76	7.88	2.08 µM	4.13 µM	
CC(=O)[O-].CC(=O)[O-].[Pt+2].c1cscn1.c1cscn1	> 100	> 100	> 100	> 100	> 100	> 100	42.2	> 100		53.9	36.4	> 100 µM	42.7	65.7 µM	> 100 µM	> 100	> 100	20.8 µM	> 100 µM	
Cc1c(NC(=O)C(C)(C)Br)c(=O)oc2c(C)c3occc(=O)c3cc12	> 100	> 100	> 100	> 100	> 100	> 100		> 100	> 100											
O=c1c2c(nc3n1CCS3)[nH]c1ccccc12	> 100		> 100	> 100	> 100	> 100	> 100	> 100		> 100		17.8 µM	> 100	59.5 µM	> 100 µM	> 100	> 100	> 100 µM	> 100 µM	
CC(=O)OCC1OC(N2C(=O)C(=O)c3cc(C)ccc32)C(OC(C)=O)C(OC(C)=O)C1OC(C)=O (stereo not given)	> 100	59.5	> 100	> 100	34.3	> 100	> 100	> 100	41.4											
O=S(=O)(N/N=C/c1ccc(/C=N/NS(=O)(=O)c2ccccc2)cc1)c1ccccc1	> 100	53.3	> 100	98.5	51	> 100			> 100											
CCOC(=O)NC(=O)c1cn(CC(=O)NCC(=O)NCC(=O)NCCCN2CCN(CCCNC(=O)CNC(=O)CNC(=O)Cn3cc(C(=O)NC(=O)OCC)c(=O)[nH]c3=O)CC2)c(=O)[nH]c1=O	> 100	> 100	> 100	> 100	> 100	> 100	> 100	> 100	> 100											
CC1=C(C(=O)Nc2ccccc2C)C(c2ccc(Cl)c(Cl)c2)C(C(=O)Nc2ccccc2C)=C(C)N1	45.2	45.4	93.1	79.8	37.5	35.3	29.1	> 100	36.8											
CCCCCCCCC[C@@H]1CC(=O)OCC2OC(O[C@H](CCCCCCCCC)CC(=O)OCC3OC(O[C@H](CCCCCCCCC)CC(=O)OCC4OC(O1)C(O)C(O)C4O)C(O)C(O)C3O)C(O)C(O)C2O (stereo not given in full)	21.9	31.8	28.2	15.1	11.7	10.2	23.5	23.6	20.6											
Cc1cc(C)c([O-])c(CN(C)CCN(C)Cc2cc(C)cc(C)c2[O-])c1.O=C([O-])c1cccc(C(=O)[O-])n1.[Ti+4]	22.3	5.56	> 100	> 100		> 100	5.47	> 100		0.383	1.69	3.2 µM	2.67		1.7 µM	2.89	> 100	2.08 µM	3.25 µM	
O=C1c2ccccc2-c2cccc3ccc(Cc4ccc5ccccc5c4)c1c23	> 100	> 100	> 100	> 100		> 100	> 100	> 100												
COc1ccc(N2C(=O)CC(Cl)C2=O)cc1 (stereo not given)	32.2		> 100	17.5	58.9	> 100	36.5	> 100									> 100			
COc1cc(/C=C(\C#N)C(=O)c2ccccc2)ccc1OCc1ccccc1	> 100	> 100	> 100	> 100	> 100	> 100	> 100	> 100	> 100											
COc1cc(OC)c(/C=C/S(=O)(=O)Cc2cnc(OC)c(N)c2)c(OC)c1	> 100		> 100	> 100	> 100	> 100		> 100	> 100	< 0.0209	< 0.0167	< 0.0297 µM	< 0.013	< 0.0233 µM	< 0.0173 µM			< 0.01 µM	< 0.0223 µM	< 0.0143
CC[C@@H]1OC2(C)CC(S(=O)(=O)c3ccccc3O)CC1O2 (stereo not given in full)	> 100	> 100	> 100	> 100		> 100	> 100	> 100	> 100											
C=CC1(C(=O)O)CCC(C(C)(C)C)CC1 (stereo not given)	> 100	> 100	> 100	> 100		> 100	> 100	> 100	> 100											

Structure (SMILES)	TGI (HCT-116 colon) [µM]	TGI (HL-60(TB) leukemia) [µM]	TGI (IGROV1 ovarian) [µM]	TGI (K-562 leukemia) [µM]	TGI (LOX IMVI melanoma) [µM]	TGI (M14 melanoma) [µM]	TGI (NCI-H522 lung) [µM]	TGI (SNB-19 CNS) [µM]	TGI (SR leukemia) [µM]	GI50 (HCT-116 colon) [µM]	GI50 (HL-60(TB) leukemia) [µM]	GI50 (IGROV1 ovarian)	GI50 (K-562 leukemia) [µM]	GI50 (LOX IMVI melanoma)	GI50 (M14 melanoma)	GI50 (MDA-MB-435) [µM]	TGI (MDA-MB-435) [µM]	GI50 (NCI-H522 lung)	GI50 (SNB-19 CNS)	GI50 (SR leukemia) [µM]
CC(C)CS(=O)(=O)/C(=C(\c1ccc(Br)cc1)S(=O)(=O)CC(C)C)c1ccc(Br)cc1	> 100		40.9	> 100	> 100	> 100	> 100	> 100	> 100											
NNC(=O)/C(=C/c1ccc(Cl)c(Cl)c1)NC(=O)c1ccccc1	> 100	> 100	> 100		> 100	> 100		> 100												
COc1cc(Cl)c2c3c(c(C(C)=O)oc13)CCC2	> 100	> 100	> 100	> 100	> 100	> 100		> 100												
CC1C[C@@]2(c3ccccc3)C(=O)CCC[C@H]2N1 (stereo not given in full)	> 100	> 100	> 100	> 100		> 100	> 100	> 100	> 100											
COc1ccc(-c2onc(-c3ccc([N+](=O)[O-])cc3)c2C2=NCCN2)cc1	> 100	> 100	> 100	> 100	> 100	> 100		> 100	> 100											
COc1ccccc1N1C(=O)/C(=C/c2ccc(N(CCC#N)CCC#N)cc2C)N=C1c1cc([N+](=O)[O-])ccc1Cl	> 100	> 100	> 100	> 100		> 100	> 100	> 100	> 100											
O=C(/C=C/c1ccc([N+](=O)[O-])o1)N1CCN(Cc2ccccc2)CC1	22.7	18.4	32.1	26.2	26.6	16.7	8.16	30.5	38.7											
COC(=O)c1s/c(=N\C(=S)N(C)C)n(-c2ccccc2)c1C(=O)OC	> 100	> 100	> 100	> 100	> 100	> 100	> 100	> 100												
CCCCc1c2c(nc3c1CCC/C3=C\c1ccccc1)C(=O)CCC2	39.5	74.3	42.5	85.2	34.1	41.9	29.5	44.2	36.6											
Nc1c(C(=O)c2ccc(Cl)cc2)sc(Nc2ccccc2)c1-c1nc2ccccc2s1	> 100	> 100	> 100	> 100	> 100	> 100	> 74.1	> 100	> 100	5.04	> 57.3	1.42 µM	3.1	3.25 µM	2.65 µM			3.13 µM	4.56 µM	0.857
CN[C@@H](C)C(=O)N[C@H](C(=O)N1CCC[C@H]1C(=O)N[C@H]1c2ccccc2C[C@H]1OCC#CC#CCO[C@@H]1Cc2ccccc2[C@@H]1NC(=O)[C@@H]1CCCN1C(=O)[C@@H](NC(=O)[C@H](C)NC)C1CCCCC1)C1CCCCC1	14.1	0.252	21	4.66	3.38	18	2.37	8.87	3.16	3.68	< 0.01	6.41 µM	2	1.7 µM	5.72 µM			0.0623 µM	3.24 µM	0.456
CCNC(=O)CCN(C(=O)O)S(=O)(=O)c1ccc(NC(=O)c2ccccc2)cc1	> 100	> 100	> 100	> 100	43.8	> 100	> 100	> 100	> 100											
CCOC(=O)C(Cc1c[nH]c2ccc(N)cc12)(NC(C)=O)C(=O)OCC	> 1000	> 1000	> 1000	> 1000	> 1000	> 1000	> 1000	> 1000		> 1000	758	> 1000 µM	> 1000	> 1000 µM		> 1000	> 1000	> 1000 µM	> 1000 µM	
CCCCOC(=O)NC(=O)c1cn(CCCOC(=O)CCCCCCCCC(=O)OCCCn2cc(C(=O)NC(=O)OCCCC)c(=O)[nH]c2=O)c(=O)[nH]c1=O	> 100	> 100	> 100	> 100	> 100	> 100		> 100	> 100											
CCOC(=O)C(N)C[S][Sn]([CH3])([CH3])[Cl] (stereo not given)	> 100	> 77.4	> 100	> 100	> 100	> 100	38.4	> 100		> 100	> 51.4	> 100 µM	39.6	37 µM	> 100 µM			18.4 µM	> 100 µM	
COc1ccc([N+](=O)[O-])c2c(NCCCN(C)C)c3ccccc3nc12	0.978	3.8	0.234	3.76	5.11	0.572	0.145	3.51									1.17			
COC(=O)C1C(C(=O)OC)C2(OC)c3ccccc3-c3ccccc3C12 (stereo not given)	> 100	25.3	> 100	76.9	> 100	> 100	88.8	> 100	42											
O=C1OC(CC(=O)c2ccc(Cl)c(Cl)c2)C(Cl)=C1Cl (stereo not given)		> 100	> 100	> 100	> 100	> 100	72.6	> 100												
COC(=O)CCc1cc(OC)c2c(c1)C(C(=O)OC)C(c1ccc(OC)c(OC)c1)O2 (stereo not given)	> 100	> 100	> 100	> 100	> 100	> 100	> 100	> 100	> 100			> 100 µM and 21.5 µM		> 100 µM and 12.1 µM	> 100 µM and 11.6 µM			> 100 µM and 19.9 µM	> 100 µM and 15.8 µM	
